Measurements reported in patent publication US20250136581A1, “SUBSTITUTED TRIAZOLE DERIVATIVE, PREPARATION METHOD THEREFOR, PHARMACEUTICAL COMPOSITION THEREOF, AND USE THEREOF” (SHANGHAI SIMR BIOTECHNOLOGY CO., LTD., priority 2021, published 2025).

biological target: human α5β3γ2 receptors (α5-GABAA receptor) (Homo sapiens (Human), UniProt P18507+P31644); test: 3H-flunitrazepam competition binding, human α5β3γ2 GABAA receptor; conditions: HEK293 cell membranes, 1 nM 3H-flunitrazepam; read-out: α5-GABAAR Ki
Description: The affinity of the compound to each subtype of GABAA receptor was determined by competing for the binding of ^3H-flunitrazepam to HEK293 cells stably expressing human α1β3γ2, α2β3γ2, α3β3γ2, and α5β3γ2 receptors.
The cells were suspended in 50 mM Tris-HCl buffer (pH=7.4), homogenized 10 times on ice with a homogenizer for 20 seconds, and centrifuged at 1000 g for 10 minutes at 4° C. The supernatant was collected, and the above steps were repeated. The supernatant was centrifuged at 4° C. (33800 g; Thermo, rotor: A27-8×50) for 60 minutes, and the precipitate was resuspended in Tris buffer (50 mM Tris-HCl, 10 mM MgCl2, 0.5 mM EDTA, 10% glycerol). Protein was measured (BCA method, Pierce), and 1 mL aliquots were prepared and stored at −80° C.
The radioligand competition binding assay was performed in a 200 μL system (96-well plate) containing 100 μL of cell membrane. The concentration of ^3H-flunitrazepam was 1 nM and the concentration of the test compound was in the range of […]. Flumazenil was used as a control. 1 μL of 2 mM flumazenil (final concentration […]) was added to the low signal control well (Low control, LC), and 1 μL of DMSO was added to the high signal control well (High control, HC). The final concentration of target membrane protein was […]. All test compound sample storage solutions were 10 mM. The working concentration of the samples was to dilute all the samples to 0.2 mM with DMSO, followed by 4-fold serial gradient dilutions for a total of 8 concentration gradients. The 96-well plate was sealed with a sealing film, and then incubated on a shaker at room temperature for 1 hour. At the same time, the GF/C filter plate was soaked in soaking buffer (0.3% PEI, stored at 4° C.) for at least 0.5 hours. After the binding incubation was completed, the cells were collected onto a GF/C filter plate using a cell harvester. The plate was washed four times with washing buffer (50 mM Tris-HCl, pH 7.4, stored at 4° C.). After drying in a 50° C. oven for 1 hour, the bottom of the dried GF/C filter plate was sealed. The residual radioactivity on the filter membrane was detected using liquid scintillation counting. 50 μL of scintillation fluid was added to each well, and the plate was sealed. The readings were taken using a Microbeta2. The inhibitory activity of the test sample on the binding of ^3H-flunitrazepam to GABAA receptor membrane proteins was calculated, and the IC50 of each test sample was calculated by dose-effect curve fitting (GraphPad Prism 5 software), and the Ki of the sample was calculated from the IC50, thus evaluating the binding ability of the sample to the various subtypes of GABAA receptors.

Ki [nM]	Structure (SMILES)
23.6	Cc1nnn(-c2ccc(C(F)F)nc2)c1COc1ccc(N2CCNC(=O)C2)nn1 [Example 74, 4-(6-((1-(6-(Difluoromethyl)pyridin-3-yl)-4-methyl-1H-1,2,3-triazol-5-yl)methoxy)pyridazin-3-yl)piperazin-2-one]
40.2	Cc1nnn(-c2ccc(C#N)cc2)c1COc1ccc(N2CCNC(=O)C2)nn1 [Example 75, 4-(6-((1-(4-Cyanophenyl)-4-methyl-1H-1,2,3-triazol-5-yl)methoxy)pyridazin-3-yl)piperazin-2-one]
0.54	Cc1nnn(-c2ccc(C(F)F)cc2)c1COc1ccc(N2CCN3c4nc(F)ccc4NC(=O)[C@@H]3C2)nn1 [Example 195, (S)-8-(6-((1-(4-(Difluoromethyl)phenyl)-4-methyl-1H-1,2,3-triazol-5-yl)methoxy)pyridazin-3-yl)-2-fluoro-7,8,9,10-tetrahydro-5H-pyrazino[1,2-a]pyrido[3,2-e]pyrazin-6(6aH)-one]
1.41	COCCCN1CCN(c2ccc(OCc3c(C)nnn3-c3ccc(C(F)F)cc3)nn2)CC1=O [Example 140, 4-(6-((1-(4-(Difluoromethyl)phenyl)-4-methyl-1H-1,2,3-triazol-5-yl)methoxy)pyridazin-3-yl)-1-(3-methoxypropyl)piperazin-2-one]
2.14	Cc1nnn(-c2ccc(C(F)F)cc2)c1COc1ccc(N2CC(C(=O)Nc3ccnn3C)C2)nn1 [Example 102, 1-(6-((1-(4-(Difluoromethyl)phenyl)-4-methyl-1H-1,2,3-triazol-5-yl)methoxy)pyridazin-3-yl)-N-(1-methyl-1H-pyrazol-5-yl)azetidine-3-carboxamide]
1.08	Cc1nnn(-c2ccc(C(F)F)cc2F)c1COc1ccc(N2CCNC(=O)C2)nn1 [Example 167, 4-(6-((1-(4-(Difluoromethyl)-2-fluorophenyl)-4-methyl-1H-1,2,3-triazol-5-yl)methoxy)pyridazin-3-yl)piperazin-2-one]
0.93	Cc1nnn(-c2ccc(C(F)F)cc2)c1COc1ccc(N2CCN(c3cnn(C)c3)C(=O)C2)nn1 [Example 111, 4-(6-((1-(4-(Difluoromethyl)phenyl)-4-methyl-1H-1,2,3-triazol-5-yl)methoxy)pyridazin-3-yl)-1-(1-methyl-1H-pyrazol-4-yl)piperazin-2-one]
8.86	Cc1nnn(-c2ccc(C(F)F)cc2)c1COc1ccc(N2CCNCC2=O)nn1 [Example 71, 1-(6-((1-(4-(Difluoromethyl)phenyl)-4-methyl-1H-1,2,3-triazol-5-yl)methoxy)pyridazin-3-yl)piperazin-one]
0.63	Cc1cc(OCc2c(C)nnn2-c2ccc(C(F)F)cc2)nnc1N1CCNC(=O)C1 [Example 82, 4-(6-((1-(4-(Difluoromethyl)phenyl)-4-methyl-1H-1,2,3-triazol-5-yl)methoxy)-4-methylpyridazin-3-yl)piperazin-2-one]
1.26	Cc1nnn(-c2ccc(C(F)F)cc2)c1COc1ccc(N2CC(=O)N3C[C@@H]4C[C@]3(CO4)C2)nn1 [Example 177, (3S,9aR)-8-(6-((1-(4-(Difluoromethyl)phenyl)-4-methyl-1H-1,2,3-triazol-5-yl)methoxy)pyridazin-3-yl)tetrahydro-1H-3,9a-methanopyrazino[2,1-c][1,4]oxazin-6(7H)-one]
1.13	Cc1nnn(-c2ccc(C(F)F)cc2)c1COc1ccc(N2CC(=O)N3CCN(CC(F)(F)F)CC3C2)nn1 (stereo not shown) [Example 91, 2-(6-((1-(4-(Difluoromethyl)phenyl)-4-methyl-1H-1,2,3-triazol-5-yl)methoxy)pyridazin-3-yl)-8-(2,2,2-trifluoroethyl)octahydro-4H-pyrazino[1,2-a]pyrazin-4-one]
1.98	COC1CCN(c2ccc(OCc3c(C)nnn3-c3ccc(C(F)F)cc3)nn2)C1 (stereo not shown) [Example 1, 3-((1-(4-(Difluoromethyl)phenyl)-4-methyl-1H-1,2,3-triazol-5-yl)methoxy)-6-(3-methoxypyrrolidin-1-yl)pyridazine]
4.62	O=C1CN(c2ccc(OCc3c(CC4CC4)nnn3-c3ccc(C(F)F)cc3)nn2)CCN1 [Example 186]
24.4	Cc1nnn(-c2ccc(C(F)F)cc2)c1COc1ccc(N2C(=O)NC(C)(C)C2=O)nn1 [Example 25, 3-(6-((1-(4-(Difluoromethyl)phenyl)-4-methyl-1H-1,2,3-triazol-5-yl)methoxy)pyridazin-3-yl)-5,5-dimethylimidazolidine-2,4-dione]
1.63	Cc1nnn(-c2ccc(C(F)F)cc2)c1COc1ccc(N2CCN(CCCc3ccc(Cl)cc3)C(=O)C2)nn1 [Example 144, 1-(3-(4-Chlorophenyl)propyl)-4-(6-((1-(4-(difluoromethyl)phenyl)-4-methyl-1H-1,2,3-triazol-5-yl)methoxy)pyridazin-3-yl)piperazin-2-one]
2.1	Cc1nnn(-c2ccc(C(F)F)cc2)c1COc1ccc(N2CCN3CC(c4cccc(Cl)c4)NC(=O)[C@@H]3C2)nn1 (stereo partly drawn) [Example 205, (9aS)-3-(3-Chlorophenyl)-8-(6-((1-(4-(difluoromethyl)phenyl)-4-methyl-1H-1,2,3-triazol-5-yl)methoxy)pyridazin-3-yl)hexahydro-2H-pyrazino[1,2-a]pyrazin-1(6H)-one]
1.59	CCNC(=O)C1C2CN(c3ccc(OCc4c(C)nnn4-c4ccc(C(F)F)cc4)nn3)CC21 (stereo not shown) [Example 39, 3-(6-((1-(4-(Difluoromethyl)phenyl)-4-methyl-1H-1,2,3-triazol-5-yl)methoxy)pyridazin-3-yl)-N-ethyl-3-azabicyclo[3.1.0]hexane-6-carboxamide]
1.24	Cc1nnn(-c2ccc(C(F)F)cc2)c1COc1ccc(N2CCOC3(CCS(=O)(=O)C3)C2)nn1 (stereo not shown) [Example 105, 9-(6-((1-(4-(Difluoromethyl)phenyl)-4-methyl-1H-1,2,3-triazol-5-yl)methoxy)pyridazin-3-yl)-6-oxa-2-thia-9-azaspiro[4.5]decane 2,2-dioxide]
1.8	Cc1nnn(-c2ccc(C(F)F)cc2)c1COc1ccc(N2CCN(C3CN(C(C)C)C3)C(=O)C2)nn1 [Example 142, 4-(6-((1-(4-(Difluoromethyl)phenyl)-4-methyl-1H-1,2,3-triazol-5-yl)methoxy)pyridazin-3-yl)-1-(1-isopropylazetidin-3-yl)piperazin-2-one]
4.31	Cc1nnn(-c2ccc(C(F)F)cc2)c1COc1ccc(N2CC(C(=O)N3CCOC(C)(C)C3)C2)nn1 [Example 158, (1-(6-((1-(4-(Difluoromethyl)phenyl)-4-methyl-1H-1,2,3-triazol-5-yl)methoxy)pyridazin-3-yl)azetidin-3-yl)(2,2-dimethylmorpholino)methanone]
1.53	Cc1nnn(-c2ccc(C(F)F)cc2)c1COc1ccc(N2CCN(CCN3CCC(F)(F)CC3)C(=O)C2)nn1 [Example 109, 4-(6-((1-(4-(Difluoromethyl)phenyl)-4-methyl-1H-1,2,3-triazol-5-yl)methoxy)pyridazin-3-yl)-1-(2-(4,4-difluoropiperidin-1-yl)ethyl)piperazin-2-one]
3.46	Cc1nnn(-c2ccc(C(F)F)cc2)c1COc1ccc(N2CC3(CNC(=O)C3)C2)nn1 [Example 87, 2-(6-((1-(4-(Difluoromethyl)phenyl)-4-methyl-1H-1,2,3-triazol-5-yl)methoxy)pyridazin-3-yl)-2,6-diazaspiro[3.4]octan-7-one]
7.2	Cc1nnn(-c2ccc(C(F)F)cc2)c1COc1ccc(N2CC[C@@H]3CCNC(=O)[C@@H]3C2)nn1 (relative stereo) [Example 123, cis-7-(6-((1-(4-(Difluoromethyl)phenyl)-4-methyl-1H-1,2,3-triazol-5-yl)methoxy)pyridazin-3-yl)octahydro-2,7-naphthyridin-1(2H)-one]
1.78	CC(=O)NC1CCN(c2ccc(OCc3c(C)nnn3-c3ccc(C(F)F)cc3)nn2)C1 (stereo not shown) [Example 88, N-(1-(6-((1-(4-(Difluoromethyl)phenyl)-4-methyl-1H-1,2,3-triazol-5-yl)methoxy)pyridazin-3-yl)pyrrolidin-3-yl)acetamide]
6.33	Cc1nnn(-c2ccc(C(F)F)cc2)c1COc1ccc(N2CC(=O)N3CC4CC3(C4)C2)nn1 [Example 179, 2-(6-((1-(4-(Difluoromethyl)phenyl)-4-methyl-1H-1,2,3-triazol-5-yl)methoxy)pyridazin-3-yl)tetrahydro-6H-7,8a-methanopyrrolo[1,2-a]pyrazin-4(1H)-one]
